Converted amounts (≈) assume the structure as drawn.
Key:
Type in all cases: functional
[1] = tested on: Streptococcus pneumoniae; assay: Antimicrobial activity against Streptococcus pneumoniae 31002 after 24 hrs by agar dilution method; settings: Streptococcus pneumoniae, 31002, 24 h
[2] = tested on: Staphylococcus aureus; assay: Antimicrobial activity against Staphylococcus aureus 26003 after 24 hrs by agar dilution method; settings: Staphylococcus aureus, 26003, 24 h
[3] = Antimicrobial activity against Streptomyces albus 260101 after 24 hrs by agar dilution method; settings: Streptomyces albus, 260101, 24 h
[4] = tested on: Shigella boydii; assay: Antimicrobial activity against Shigella boydii 51313 after 24 hrs by agar dilution method; settings: Shigella boydii, 51313, 24 h
[5] = tested on: Shigella flexneri; assay: Antimicrobial activity against Shigella flexneri 92475 after 24 hrs by agar dilution method; settings: Shigella flexneri, 92475, 24 h

SMILES | MIC [1] [µg/mL] | MIC [2] [µg/mL] | MIC [3] [µg/mL] | MIC [4] [µg/mL] | MIC [5] [µg/mL]
CCCC[C@H](CN(O)C=O)C(=O)N1COC[C@H]1C(=O)Nc1ccccc1 | 0.195 (≈ 0.537 µM) | 0.39 (≈ 1.07 µM) | 0.39 (≈ 1.07 µM) | > 6.25 | > 6.25
CCCC[C@H](CN(O)C=O)C(=O)N1COC[C@H]1C(=O)Nc1ccc(N2CCOCC2)cc1 | 0.39 (≈ 0.87 µM) | 1.56 (≈ 3.48 µM) | 0.78 (≈ 1.74 µM) | 6.25 (≈ 13.9 µM) | > 6.25
CCCC[C@H](CN(O)C=O)C(=O)N1COC[C@H]1C(=O)Nc1ccc(N2CCOCC2)c(Cl)c1 | 0.098 (≈ 0.203 µM) | 0.39 (≈ 0.808 µM) | 0.39 (≈ 0.808 µM) | 6.25 (≈ 12.9 µM) | 6.25 (≈ 12.9 µM)
CCCC[C@H](CN(O)C=O)C(=O)N1CO[C@H](C)[C@H]1C(=O)Nc1ccc(N2CCOCC2)c(Cl)c1 | 0.098 (≈ 0.197 µM) | 0.78 (≈ 1.57 µM) | 0.39 (≈ 0.785 µM) | > 6.25 | > 6.25
CCCC[C@H](CN(O)C=O)C(=O)N1COC[C@H]1C(=O)Nc1c(F)cccc1F | 0.195 (≈ 0.488 µM) | 0.39 (≈ 0.976 µM) | 0.39 (≈ 0.976 µM) | > 6.25 | > 6.25
CCCC[C@H](CN(O)C=O)C(=O)N1COC[C@H]1C(=O)Nc1ccc(F)cn1 | 0.098 (≈ 0.256 µM) | 0.78 (≈ 2.04 µM) | 0.39 (≈ 1.02 µM) | 3.13 (≈ 8.19 µM) | 3.13 (≈ 8.19 µM)
CCCC[C@H](CN(O)C=O)C(=O)N1COC[C@H]1C(=O)Nc1ccc(F)cc1 | 0.195 (≈ 0.511 µM) | 0.39 (≈ 1.02 µM) | 0.39 (≈ 1.02 µM) | > 6.25 | > 6.25
CCCC[C@H](CN(O)C=O)C(=O)N1COC[C@H]1C(=O)Nc1ccc(OC)cc1 | 0.195 (≈ 0.496 µM) | 0.39 (≈ 0.991 µM) | 0.78 (≈ 1.98 µM) | > 6.25 | > 6.25
CCCC[C@H](CN(O)C=O)C(=O)N1CO[C@H](C)[C@H]1C(=O)Nc1ccc(F)c[n+]1[O-] | 0.195 (≈ 0.473 µM) | 1.56 (≈ 3.78 µM) | 0.78 (≈ 1.89 µM) | > 6.25 | > 6.25
CCCC[C@H](CN(O)C=O)C(=O)N1COC[C@H]1C(=O)Nc1ccc(C)cc1 | 0.195 (≈ 0.517 µM) | 0.78 (≈ 2.07 µM) | 0.78 (≈ 2.07 µM) | > 6.25 | > 6.25
CCCC[C@H](CN(O)C=O)C(=O)N1CCC[C@H]1C(=O)Nc1ccc(F)c[n+]1[O-] | 0.195 (≈ 0.492 µM) | 0.39 (≈ 0.984 µM) | 0.39 (≈ 0.984 µM) | 6.25 (≈ 15.8 µM) | > 6.25
CCCC[C@H](CN(O)C=O)C(=O)N1COC[C@H]1C(=O)NCc1ccccc1 | 0.78 (≈ 2.07 µM) | 0.78 (≈ 2.07 µM) | 1.56 (≈ 4.13 µM) | > 6.25 | > 6.25
CCCC[C@H](CN(O)C=O)C(=O)N1CO[C@H](C)[C@H]1C(=O)Nc1ccc(F)cn1 | 0.39 (≈ 0.984 µM) | 1.56 (≈ 3.94 µM) | 0.39 (≈ 0.984 µM) | 3.13 (≈ 7.9 µM) | > 6.25
CCCC[C@H](CN(O)C=O)C(=O)N1COC[C@H]1C(=O)Nc1ccc(N2CCOCC2)c(F)c1 | 0.098 (≈ 0.21 µM) | 0.78 (≈ 1.67 µM) | 0.78 (≈ 1.67 µM) | > 6.25 | > 6.25
CCCC[C@H](CN(O)C=O)C(=O)N1CO[C@H](C)[C@H]1C(=O)Nc1ccc(C)cc1 | 0.098 (≈ 0.25 µM) | 1.56 (≈ 3.99 µM) | 0.78 (≈ 1.99 µM) | > 6.25 | > 6.25
CCCC[C@H](CN(O)C=O)C(=O)N1CO[C@H](C)[C@H]1C(=O)Nc1ccc(F)cc1 | 0.195 (≈ 0.493 µM) | 1.56 (≈ 3.95 µM) | 0.78 (≈ 1.97 µM) | 3.13 (≈ 7.92 µM) | > 6.25
CCCC[C@H](CN(O)C=O)C(=O)N1CO[C@H](C)[C@H]1C(=O)Nc1ccc(N2CCOCC2)c(F)c1 | 0.195 (≈ 0.406 µM) | 0.78 (≈ 1.62 µM) | 1.56 (≈ 3.25 µM) | > 6.25 | > 6.25
CCCC[C@H](CN(O)C=O)C(=O)N1COC[C@H]1C(=O)Nc1ccc(F)c[n+]1[O-] | 0.195 (≈ 0.489 µM) | 0.78 (≈ 1.96 µM) | 0.78 (≈ 1.96 µM) | 3.13 (≈ 7.86 µM) | > 6.25
CCCC[C@H](CN(O)C=O)C(=O)N1COC[C@H]1C(=O)N[C@@H](C)c1ccccc1 | 0.195 (≈ 0.498 µM) | 1.56 (≈ 3.99 µM) | 1.56 (≈ 3.99 µM) | > 6.25 | > 6.25

Reference: ChEMBL document CHEMBL1681648, “Synthesis and in vitro antibacterial activity of oxazolidine LBM-415 analogs as peptide deformylase inhibitors” (2011)
